pIC50: −log10 of the molar value.
Assays:
human CYP11B2 = human CYP11B2 (Homo sapiens (Human), UniProt P19099); assay: V79-Human-CYP11B2 Assay; assay type: cell-based; conditions: V79MZh11B2 cells, substrate deoxycorticosterone 100 nM, 50 min incubation
Protocol: (§1) V79MZh11B1 and V79MZh11B2 cells (8×10^5 cells/well) were grown on 24-well culture plates until confluence. Before testing, the DMEM culture medium was removed and 450 μl of fresh DMEM containing the inhibitor was added to each well. After a preincubation step of 60 min at 37° C., the reaction was started by the addition of 50 μl of DMEM in which the substrate deoxycorticosterone (containing 0.15 μCi of [1,2-3H]-deoxycorticosterone in ethanol, final test concentration 100 nM) was dissolved. Incubation times were 25 min for V79MZh11B1 and 50 min for V79MZh11B2 cells at 37° C., respectively. The enzyme reactions were stopped by extracting the supernatant with ethyl acetate. Samples were centrifuged (10.000 g, 5 min) and the solvent was pipetted into fresh cups. After evaporation of the solvent, the steroids were redissolved in 40 μl of […] and analyzed by HPLC. Detection and quantification of the steroids were performed using a radioflow detector. To first estimate the different IC50 values, five different concentrations ranging from 1 to 10.000 nM were measured. For the following IC50 determination, three different concentrations (repeat-determinations) were measured for each […] value of each inhibitor in which the second concentration led to an inhibition of approximately 40 to 60%. […] The final IC50 value was estimated as the average of three or four independent IC50 values and a selectivity factor corresponding to the ratio between the […] values of CYP11B1 and CYP11B2 was calculated for each substance.

human CYP11B1 = human CYP11B1 (Homo sapiens (Human), UniProt P15538); assay: V79-Human-CYP11B1 Assay; assay type: cell-based; conditions: V79MZh11B1 cells, substrate deoxycorticosterone 100 nM, 25 min incubation
Protocol: as §1

Sequence of human CYP11B1 (P15538 25-503): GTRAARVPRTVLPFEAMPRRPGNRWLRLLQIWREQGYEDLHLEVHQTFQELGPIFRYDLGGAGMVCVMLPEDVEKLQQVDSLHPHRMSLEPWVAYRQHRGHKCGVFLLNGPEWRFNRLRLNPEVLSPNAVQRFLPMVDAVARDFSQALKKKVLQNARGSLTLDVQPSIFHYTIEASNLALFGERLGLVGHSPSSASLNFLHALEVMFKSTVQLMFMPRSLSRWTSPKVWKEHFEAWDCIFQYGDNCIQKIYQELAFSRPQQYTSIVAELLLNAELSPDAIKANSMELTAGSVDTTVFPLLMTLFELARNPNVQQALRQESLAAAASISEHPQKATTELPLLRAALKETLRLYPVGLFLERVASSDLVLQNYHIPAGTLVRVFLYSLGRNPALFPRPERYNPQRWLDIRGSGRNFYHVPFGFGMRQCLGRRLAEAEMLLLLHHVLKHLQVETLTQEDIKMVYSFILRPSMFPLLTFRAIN
Sequence of human CYP11B2 (P19099 25-503): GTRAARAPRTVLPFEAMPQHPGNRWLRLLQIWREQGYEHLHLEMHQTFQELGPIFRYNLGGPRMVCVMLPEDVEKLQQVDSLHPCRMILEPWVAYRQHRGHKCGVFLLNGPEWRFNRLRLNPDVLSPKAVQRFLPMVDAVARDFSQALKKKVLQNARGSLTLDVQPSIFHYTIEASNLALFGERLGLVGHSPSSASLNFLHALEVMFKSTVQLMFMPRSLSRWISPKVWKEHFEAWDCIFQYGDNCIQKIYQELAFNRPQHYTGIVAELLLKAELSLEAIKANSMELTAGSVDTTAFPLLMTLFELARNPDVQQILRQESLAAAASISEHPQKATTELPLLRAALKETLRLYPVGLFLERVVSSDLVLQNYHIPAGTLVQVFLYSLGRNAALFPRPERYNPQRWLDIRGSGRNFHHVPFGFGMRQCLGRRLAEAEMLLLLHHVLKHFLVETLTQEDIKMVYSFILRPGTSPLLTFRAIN

Structure (SMILES) | pIC50 (human CYP11B2) | pIC50 (human CYP11B1)
Cc1nnc2n1-c1c(F)cc(-c3cncc(F)c3C3CC3)cc1CC2 [Example 1, 7-(4-cyclopropyl-5-fluoropyridin-3-yl)-9-fluoro-1-methyl-4,5-dihydro-[1,2,4]triazolo[4,3-a]quinoline] | 8.14 | 5.64
Cc1c(F)cncc1-c1cc(F)c2c(c1)CCc1nnc(C)n1-2 [Example 2, 9-fluoro-7-(5-fluoro-4-methylpyridin-3-yl)-1-methyl-4,5-dihydro-[1,2,4]triazolo[4,3-a]quinoline] | 8.22 | 5.85
Cc1nnc2n1-c1c(F)cc(-c3cncc(F)c3C(C)C)cc1CC2 [Example 3, 9-fluoro-7-(5-fluoro-4-isopropylpyridin-3-yl)-1-methyl-4,5-dihydro-[1,2,4]triazolo[4,3-a]quinoline] | 8.02 | 5.40
Cc1nnc2n1-c1c(F)cc(-c3cncc(F)c3Cl)cc1CC2 [Example 4, 7-(4-chloro-5-fluoropyridin-3-yl)-9-fluoro-1-methyl-4,5-dihydro-[1,2,4]triazolo[4,3-a]quinoline] | 7.67 | 5.01
